Source: paper PMC4222822, “Discovery and Characterization of a Potent and Selective Inhibitor of Aedes aegypti Inward Rectifier Potassium Channels” (PLoS ONE, 2014)
pIC50: −log10 of the molar value.

Legend:
[1] = molecular target: T1, Kir2.3 (Homo sapiens, UniProt P48050); experiment: Tl+ flux selectivity assay, Kir2.3; assay type: cell-based; settings: n = 2 independent experiments in triplicate, read-out: Inhibition of Tl+ flux (IC50)
T1 construct: expressed in transfected cells
T1 sequence (P48050 1-445): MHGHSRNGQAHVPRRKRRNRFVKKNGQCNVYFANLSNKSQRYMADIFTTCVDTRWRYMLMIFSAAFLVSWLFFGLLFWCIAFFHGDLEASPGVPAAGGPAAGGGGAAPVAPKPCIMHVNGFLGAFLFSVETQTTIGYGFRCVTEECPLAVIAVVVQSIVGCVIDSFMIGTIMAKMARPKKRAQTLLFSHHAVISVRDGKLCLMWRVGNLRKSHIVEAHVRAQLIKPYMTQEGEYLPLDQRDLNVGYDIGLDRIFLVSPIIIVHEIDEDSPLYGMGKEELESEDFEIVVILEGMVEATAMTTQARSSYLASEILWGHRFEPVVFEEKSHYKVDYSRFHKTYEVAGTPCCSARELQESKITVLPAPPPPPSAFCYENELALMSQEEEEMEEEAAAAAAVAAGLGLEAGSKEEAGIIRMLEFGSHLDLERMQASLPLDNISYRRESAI
Method: [Worded in the source for another target; used here, by the source, with some conditions changed.] Tl^+ flux assays were performed essentially as described previously, [18], [19]. Briefly, stably transfected T-Rex-HEK-293 cells expressing AeKir1 channels were cultured overnight in 384-well plates (20,000 cells/20 µL/well black-walled, clear-bottomed BD PureCoat amine-coated plates (BD, Bedford, MA) with a plating media containing DMEM, 10% dialyzed FBS and 1 µg/mL tetracycline. The next day, the cell culture medium was replaced with a dye-loading solution containing assay buffer (Hanks Balanced Salt Solution with 20 mM HEPES, pH 7.3), 0.01% (w/v) Pluronic F-127 (Life Technologies, Carlsbad, CA), and 1.2 µM of the thallium-sensitive dye Thallos-AM (TEFlabs, Austin, TX). Following 1 hr incubation at room temperature, the dye-loading solution was washed from the plates and replaced with 20 µL/well of assay buffer. […] Tl^+ flux data were analyzed as previously described, [21], [22] using a combination of Excel (Microsoft Corp, Redmond, WA) with XLfit add-in (IDBS, Guildford, Surrey, UK) and OriginPro (OriginLab, Northampton, MA) software. […] The slope of the fluorescence increase beginning 5 s after Tl^+ addition and ending 15 s after Tl^+ addition was calculated.

[2] = test system: adult female mosquitoes (A. aegypti); experiment: Mosquito excretion experiments (excretory capacity); assay type: in vivo, Aedes aegypti; settings: 1 h after injection, mean ±SEM
Method: The Aedes aegypti mosquito colony used in the present study is identical to that described previously. As before, only adult female mosquitoes 3–10 days post emergence were utilized for experiments.
The excretory capacity of mosquitoes was measured as described. In brief, after anesthetizing mosquitoes on ice, their hemolymph was injected as described above with 900 nL of a K^+-PBS vehicle containing 1.15% DMSO, 0.077% β-cyclodextrin, and 0.008% Solutol, or the vehicle containing VU625 (0.77 mM) to deliver a dose of 690 pmol of VU625 per mosquito. In experiments where probenecid was used, the vehicle was supplemented with water- soluble probenecid […] to deliver a dose of 3.4 nmol of probenecid per mosquito. After injection, the mosquitoes were placed immediately in a graduated, packed-cell volume tube (MidSci, St. Louis, MO; 5 mosquitoes per tube) and held at 28°C. The volume of urine excreted at 60 min post injection was measured as described previously, and all mosquitoes were confirmed to be alive at the end of 60 min period. For each treatment, 6–18 independent trials of 5 mosquitoes per treatment were performed.
Prism (GraphPad Software) was used to generate a dose-response curve for the toxicity of VU625; the doses (x-axis) were first log transformed and then the mortality data was normalized using Prism, where the smallest value and largest values in a data set equal ‘0%’ and ‘100%’, respectively. The data were then fitted using a ‘biphasic’ algorithm (<100 constraint) to calculate potencies (ED25 and ED75 values). To compare 1) the toxic effects among the vehicle, probenecid, VU625, and VU625 + probenecid treatments, and 2) the excretory capacity among the vehicle, probenecid, VU625, and VU625 + probenecid treatments, one-way ANOVAs were performed with Newman-Keuls posttests.

**Q.** What does the source list for `CCC(=O)N1c2ccc(S(=O)(=O)Nc3cccc(OC)c3)cc2CC1C` (stereo not drawn) [VU625, N-(3-methoxyphenyl)-2-methyl-1-propionylindoline-5-sulfonamide]?
**A.** pIC50 [1]: < 4.52; excretory capacity (urine excreted) ([2]; VU625 690 pmol + probenecid 3.4 nmol per mosquito in 900 nL vehicle): 236.7±24.53 nL/female; excretory capacity (urine excreted) ([2]; VU625 690 pmol per mosquito in 900 nL vehicle): 583.3±29.52 nL/female
